Experimental data from patent US20100105768A1, “MOLD-INHIBITING METHOD AND COMPOSITION” (priority 2008, published 2010).

Columns and labels:
[1] = tested on: mold/stain fungi; assay: Dip treated fresh cut white pine blocks in sealed bags, visual mold and stain growth rating (Example 5); type: cell-based; settings: 1% dip solution; for Visual evaluation Week 1 / Visual evaluation Week 2 / Visual evaluation Week 3 / Visual evaluation Week 4 / Visual evaluation Week 5 / Visual evaluation Week 6 / Visual evaluation Week 8: one minute, white pine blocks, no inoculation; for Efficacy against mold/stain fungi (in words): 8 weeks
Source text: Fresh cut white pine blocks (7.6×6.35×3.8 cm^3) were dipped in the prepared test formulation for one minute. The individual dipped wood block was placed in a plastic sandwich bag and the plastic bag was sealed to retain the moisture of the test wood blocks. No mold or stain fungi were inoculated on the test blocks. […] The test was completed in 8 weeks.

[2] = tested on: A. niger and P. citrinum; assay: Visual mold growth rating on gypsum cuboids placed on inoculated Sabouraud's Dextrose Agar (Example 2); type: cell-based; settings: for Visual evaluation Week 1 / Visual evaluation Week 2 / Visual evaluation Week 3 / Visual evaluation Week 4: 26° C., 70% relative humidity
Source text: Gypsum cuboids (30×40×25 mm^3) were made with the addition of the following formulations: • Sodium dehydroacetic acid (Na-DHA): 2500 ppm and 5000 ppm. • Carboquat® 250T ^3: 2500 ppm and 5000 ppm. • Carboquat® 250T/DHA 10:4 (wt./wt.): 2500 ppm and 5000 ppm. • ^3 Carboquat® 250T is an essentially aqueous solution containing approx. 50% of a mixture of carbonate and bicarbonate of didecyldimethylammonium. Carboquat® 250T is available from Lonza Inc., Allendale N.J.
Glass containers with Sabouraud's Dextrose Agar (SDA) on the bottom were prepared. Freshly-made spore suspensions of A. niger and P. citrinum were spread on the surface of SDA. The gypsum cuboids were air-dried and then placed on the top of the inoculated SDA. The containers were covered by aluminum foil and placed in an incubator with pre-set temperature of 26° C. and relative humidity of 70%. The test was completed at 4 weeks. Visual observation of mold growth on the gypsum cuboids was recorded weekly using the same rating system as in Example 1.

## O=C([O-])c1ccccc1.[Na+] [Na-Benzoate]
[1]
  Visual evaluation Week 1: 2 (Medium mold growth (6-25% mold coverage))
  Visual evaluation Week 2: 4 (Severe mold growth (>50% mold coverage))
  Visual evaluation Week 3: 4 (Severe mold growth (>50% mold coverage))
  Visual evaluation Week 4: 4 (Severe mold growth (>50% mold coverage))
  Visual evaluation Week 5: 4 (Severe mold growth (>50% mold coverage))
  Visual evaluation Week 6: 4 (Severe mold growth (>50% mold coverage))
  Visual evaluation Week 8: 4 (Severe mold growth (>50% mold coverage))
  Efficacy against mold/stain fungi (in words): no efficacy

## CC(=O)c1c([O-])cc(C)oc1=O.[Na+] [Na-DHA, Sodium dehydroacetic acid]
[2]; 2500 ppm in gypsum cuboid
  Visual evaluation Week 1: 0
  Visual evaluation Week 2: 2 (Medium mold growth (6-25% mold coverage))
  Visual evaluation Week 3: 3 (Heavy mold growth (26-50% mold coverage))
  Visual evaluation Week 4: 3 (Heavy mold growth (26-50% mold coverage))
[2]; 5000 ppm
  Mold growth on gypsum cuboids (in words): no mold growth
[2]; 5000 ppm in gypsum cuboid
  Visual evaluation Week 1: 0
  Visual evaluation Week 2: 0
  Visual evaluation Week 3: 0
  Visual evaluation Week 4: 0
[1]
  Visual evaluation Week 1: 0
  Visual evaluation Week 2: 0
  Visual evaluation Week 3: 0
  Visual evaluation Week 4: 0
  Visual evaluation Week 5: 1 (Slight mold growth (<5% mold coverage))
  Visual evaluation Week 6: 1 (Slight mold growth (<5% mold coverage))
  Visual evaluation Week 8: 2 (Medium mold growth (6-25% mold coverage))
  Efficacy against mold/stain fungi (in words): strong efficacy

## C/C=C/C=C/C(=O)[O-].[Na+] [Na-Sorbate]
[1]
  Visual evaluation Week 1: 2 (Medium mold growth (6-25% mold coverage))
  Visual evaluation Week 2: 4 (Severe mold growth (>50% mold coverage))
  Visual evaluation Week 3: 4 (Severe mold growth (>50% mold coverage))
  Visual evaluation Week 4: 4 (Severe mold growth (>50% mold coverage))
  Visual evaluation Week 5: 4 (Severe mold growth (>50% mold coverage))
  Visual evaluation Week 6: 4 (Severe mold growth (>50% mold coverage))
  Visual evaluation Week 8: 4 (Severe mold growth (>50% mold coverage))
  Efficacy against mold/stain fungi (in words): no efficacy
